Assay results reported in US9149038B2, “4-amino-6-(heterocyclic)picolinates and 6-amino-2-(heterocyclic)pyrimidine-4-carboxylates and their use as herbicides” (Dow AgroSciences LLC, priority 2013, dated 2015).
Read-outs that look alike come from different tables or passages of the source.

Experiments:
[1] = test system: Key Grass and Sedge Weeds as well as Grass Crops; test: Post-Emergent Test II: postemergent herbicidal activity, visual rating after 14 d (Table 8); format: in vivo; settings: post-emergence, 336 h; for pest or weed control at 35 g/ha: 35 g ai/ha; for pest or weed control at 70 g/ha: 70 g ai/ha; for pest or weed control at 140 g/ha: 140 g ai/ha
Summary of the method: (§1)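 Plants were raised in a greenhouse for 7-21 d and treated once at the first or second true leaf stage. Compounds, dissolved in 97:3 acetone:DMSO then diluted into an aqueous acetone/isopropanol/crop oil/Triton X-155 carrier, were applied by overhead track sprayer at 187 L/ha. After 14 d with subirrigation, injury was scored visually from 0 (none) to 100 (complete kill).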

[2] = test system: Key Broadleaf Weed and Crop Species; test: Post-Emergent Test II: postemergent herbicidal activity, visual rating after 14 d (Table 7); format: in vivo; settings: post-emergence, 336 h; for pest or weed control at 35 g/ha: 35 g ai/ha; for pest or weed control at 70 g/ha: 70 g ai/ha; for pest or weed control at 140 g/ha: 140 g ai/ha
Summary of the method: as §1

[3] = maize, corn (Zea mays), read-out: Visual Growth Reduction (%) 14 Days After Application ZEAMX
[4] = rice (Oryza sativa), read-out: Visual Growth Reduction (%) 14 Days After Application ORYSA
[5] = wheat, spring (Triticum aestivum), read-out: Visual Growth Reduction (%) 14 Days After Application TRZAS
[6] = yellow nutsedge (Cyperus esculentus), read-out: Visual Growth Reduction (%) 14 Days After Application CYPES
[7] = lambsquarters (Chenopodium album), read-out: Visual Growth Reduction (%) 14 Days After Application CHEAL
[8] = oilseed rape, canola (Brassica napus), read-out: Visual Growth Reduction (%) 14 Days After Application BRSNN
[9] = redroot pigweed (Amaranthus retroflexus), read-out: Visual Growth Reduction (%) 14 Days After Application AMARE
[10] = sunflower (Helianthus annuus), read-out: Visual Growth Reduction (%) 14 Days After Application HELAN
[11] = velvetleaf (Abutilon theophrasti), read-out: Visual Growth Reduction (%) 14 Days After Application ABUTH
[12] = wild poinsettia (Euphorbia heterophylla), read-out: Visual Growth Reduction (%) 14 Days After Application EPHHL
[13] = giant foxtail (Setaria faberi), read-out: Visual Growth Reduction (%) 14 Days After Application SETFA

| Compound | pest or weed control at 35 g/ha [1, 3] [%] | pest or weed control at 70 g/ha [1, 3] [%] | pest or weed control at 140 g/ha [1, 3] [%] | pest or weed control at 35 g/ha [1, 4] [%] | pest or weed control at 70 g/ha [1, 4] [%] | pest or weed control at 140 g/ha [1, 4] [%] | pest or weed control at 35 g/ha [1, 5] [%] | pest or weed control at 70 g/ha [1, 5] [%] | pest or weed control at 140 g/ha [1, 5] [%] | pest or weed control at 35 g/ha [1, 6] [%] | pest or weed control at 140 g/ha [1, 6] [%] | pest or weed control at 35 g/ha [2, 7] [%] | pest or weed control at 70 g/ha [2, 7] [%] | pest or weed control at 140 g/ha [2, 7] [%] | pest or weed control at 35 g/ha [2, 8] [%] | pest or weed control at 70 g/ha [2, 8] [%] | pest or weed control at 140 g/ha [2, 8] [%] | pest or weed control at 35 g/ha [2, 9] [%] | pest or weed control at 70 g/ha [2, 9] [%] | pest or weed control at 140 g/ha [2, 9] [%] | also measured |
| --- | --- | --- | --- | --- | --- | --- | --- | --- | --- | --- | --- | --- | --- | --- | --- | --- | --- | --- | --- | --- | --- |
| COC(=O)c1nc(-c2cc(F)c3c(c2)OC(F)(F)O3)c(F)c(N)c1Cl [Compound 17] | 0 to 29 | 0 to 29 | 60 to 74 | 0 to 29 | 0 to 29 | 0 to 29 | 0 to 29 | 0 to 29 | 0 to 29 | 0 to 29 | 0 to 29 | 0 to 29 | 0 to 29 | 0 to 29 | 0 to 29 | 0 to 29 | 0 to 29 | 0 to 29 | 0 to 29 | 0 to 29 | pest or weed control at 70 g/ha [1, 6]: 0 to 29%; pest or weed control at 35 g/ha [2, 10]: 0 to 29%; pest or weed control at 70 g/ha [2, 10]: 0 to 29%; pest or weed control at 140 g/ha [2, 10]: 0 to 29%; pest or weed control at 35 g/ha [2, 11]: 0 to 29%; pest or weed control at 70 g/ha [2, 11]: 0 to 29%; pest or weed control at 140 g/ha [2, 11]: 0 to 29%; pest or weed control at 35 g/ha [2, 12]: 0 to 29%; pest or weed control at 70 g/ha [2, 12]: 0 to 29%; pest or weed control at 140 g/ha [2, 12]: 0 to 29% |
| COC(=O)c1nc(-c2ccc3c(c2Cl)OC(F)(F)O3)cc(N)c1Cl [Compound 33] | 60 to 74 | 60 to 74 | 75 to 84 | 0 to 29 | 0 to 29 | 0 to 29 | 0 to 29 | 0 to 29 | 0 to 29 | 95 to 100 | 95 to 100 | 75 to 84 | 75 to 84 | 75 to 84 | 60 to 74 | 60 to 74 | 60 to 74 | 60 to 74 | 75 to 84 | 95 to 100 | pest or weed control at 35 g/ha [1, 13]: 0 to 29%; pest or weed control at 70 g/ha [1, 13]: 0 to 29%; pest or weed control at 140 g/ha [1, 13]: 45 to 59%; pest or weed control at 35 g/ha [2, 10]: 75 to 84%; pest or weed control at 70 g/ha [2, 10]: 85 to 94%; pest or weed control at 140 g/ha [2, 10]: 85 to 94%; pest or weed control at 35 g/ha [2, 11]: 60 to 74%; pest or weed control at 70 g/ha [2, 11]: 75 to 84%; pest or weed control at 140 g/ha [2, 11]: 75 to 84%; pest or weed control at 35 g/ha [2, 12]: 0 to 29%; pest or weed control at 70 g/ha [2, 12]: 60 to 74%; pest or weed control at 140 g/ha [2, 12]: 60 to 74% |
